Data reported in publication PMC6150229, “Simultaneous Determination of Twenty-Five Compounds in Rat Plasma Using Ultra-High Performance Liquid Chromatography-Polarity Switching Tandem Mass Spectrometry and Its Application to a Pharmacokinetic Study” (Molecules : A Journal of Synthetic Chemistry and Natural …, 2017).
Like-named read-outs stand apart in the source and are kept apart here.

Legend:
[1] = male, Sprague-Dawley, rat, in vivo, po, 8 g/kg
Experimental: (§1) Twelve male Spargue-Dawley rats (200 ± 20 g) were supplied by Vital River Laboratory Animal Technology Co. Ltd. (Beijing, China). […] The rats were acclimated under a humidity (50%) controlled room at 22–25 °C with a 12 h light-dark cycle, and standard diet and water were provided ad libitum for one week.
(§2) Afterwards, all rats were randomly divided into two groups, namely sham and model groups. The myocardial ischemia model was simulated by left anterior descending (LAD) coronary artery ligation [12], whilst the rats belonging to the sham group received the similar surgery, however no actual ligation in LAD. All animals were fasted overnight with free access to water prior to oral dosing. Aliquots (250 μL) of blood were sampled at 0 (pre-dose), 0.08, 0.25, 0.5, 0.75, 1, 1.5, 2, 4, 6, 8, 12, and 24 h from venous around eye socket into heparinized tubes after a single oral dosing of 8.0 g/kg of QSKL and the collected blood samples were immediately subjected for 4000 rpm centrifugation for 10 min at 4 °C to harvest the plasma samples. Each 100 μL aliquot of plasma sample was transferred into another Eppendorf tube and stored at −80 °C till use.
(§3) When analysis, 300 μL of internal standards (200 ng/mL for either internal standard) fortified ACN, corresponding to three volumes of plasma, was spiked into each thawed plasma sample and mixed thoroughly. Then, the resulting samples were processed as those calibration samples.
(§4) Individual animal plasma concentrations versus time dataset were subjected to a non-compartmental pharmacokinetic analysis using WinNonlin software (ver. 6.4, Pharsight Corp., Sunnyvale, CA, USA). The pharmacokinetic parameters of each analyte including the maximum plasma concentration (Cmax), the time at which Cmax was achieved (Tmax), the terminal elimination half-life (t1/2), and the area under the plasma concentration versus time curve (AUC0→t along with AUC0→∞) were calculated. Moreover, Lz corresponding to the ratio of the dosage and AUC0→∞, as well as mean residence time (MRT) that was defined as the ratio of the area under the first moment curve from time 0 to infinity (AUMC0→∞/AUC0→∞) was also calculated. All results are expressed as mean ± SD. Comparisons regarding the pharmacokinetic parameters were carried out between sham and model groups using Student’s t-test, and p values less than 0.05 were considered to be significant.

in vivo = settings: male, Sprague-Dawley, rat, po, 8 g/kg; for AUC(0-t): AUC0–t; for AUC(0-inf): AUC0–∞
Experimental: as §1, §2, §3, §4

[2] = Pharmacokinetic study in sham and myocardial ischemia model rats after a single oral dose of QSKL (UHPLC-psMS/MS of plasma, non-compartmental analysis); settings: QSKL-treated plasma samples, sham and model rats, single oral dose 8.0 g/kg
Experimental: as §1, §2, §3, §4

[3] = model group (MG, myocardial ischemia) rats, oral administration of QSKL, plasma, mean ± SD, n = 6
[4] = sham group (SG) rats, oral administration of QSKL, plasma, mean ± SD, n = 6
[5] = t1/2, model group (MG, myocardial ischemia) rats, oral administration of QSKL, plasma, mean ± SD, n = 6
[6] = t1/2, sham group (SG) rats, oral administration of QSKL, plasma, mean ± SD, n = 6

| SMILES | AUC0–t [1] | AUC0–∞ [1] | MRT [1] | AUC(0-t) (in vivo) | AUC(0-inf) (in vivo) | Cmax (in vivo) | MRT (in vivo) | half-life (in vivo; t1/2) | Tmax (in vivo) | also measured |
| --- | --- | --- | --- | --- | --- | --- | --- | --- | --- | --- |
| C[C@H]1COC2=C1C(=O)C(=O)c1c2ccc2c1CCCC2(C)C [cryptotanshinone] | 10.2 ± 2.21 ng·h/mL | 16.4 ± 8.86 ng·h/mL | 25.6 ± 20.1 h | 8.77 ± 2.26 ng·h/mL | 12 ± 5.01 ng·h/mL | 0.898 ± 0.29 ng/mL | 19.3 ± 6.01 h | 12.2 ± 5.2 h |  |  |
| Cc1cccc2c3c(ccc12)C1=C(C(=O)C3=O)[C@@H](C)CO1 [dihydrotanshinone I] | 4.67 ± 2.23 ng·h/mL | 5.98 ± 5.34 ng·h/mL | 14.8 ± 9.29 h | 4.99 ± 2.18 ng·h/mL | 4.47 ± 0.864 ng·h/mL | 0.618 ± 0.25 ng/mL | 8.22 ± 1.2 h | 3.9 ± 0.858 h | 8 h |  |
| COC[C@@]12CC[C@H](OC)[C@]34C(C([C@H](OC)[C@H]13)[C@]1(OC(C)=O)[C@H]3[C@@H](OC(=O)c5ccccc5)[C@](O)(C[C@H]34)[C@@H](OC)[C@@H]1O)N(C)C2 [hypaconitine] |  |  |  |  |  |  |  |  |  | distribution in rat plasma (quantifiable or not) [2]: quantifiable in most samples; AUC(0-t) (in vivo; [3]): 0.567 ± 0.26 ng·h/mL; AUC(0-t) (in vivo; [4]): 0.824 ± 0.249 ng·h/mL; AUC(0-inf) (in vivo; [3]): 0.552 ± 0.148 ng·h/mL; AUC(0-inf) (in vivo; [4]): 0.967 ± 0.303 ng·h/mL; Cmax (in vivo; [3]): 0.156 ± 0.134 ng/mL; Cmax (in vivo; [4]): 0.101 ± 0.0328 ng/mL; MRT (in vivo; [3]): 11.9 ± 3.73 h; MRT (in vivo; [4]): 11.7 ± 2.83 h; Tmax (in vivo; [3]): 1.54 ± 0.71 h; Tmax (in vivo; [4]): 2.08 ± 1.6 h; half-life (in vivo; [5]): 7.45 ± 1.18 h; half-life (in vivo; [6]): 8.67 ± 1.72 h |
| O=C(/C=C/c1ccc(O[C@@H]2O[C@H](CO)[C@@H](O)[C@H](O)[C@H]2O)cc1)c1ccc(O)cc1O [isoliquiritin] |  |  |  |  |  |  |  |  |  | distribution in rat plasma (quantifiable or not) [2]: quantifiable in most samples; AUC(0-t) (in vivo; [3]): 1.58 ± 0.493 ng·h/mL; AUC(0-t) (in vivo; [4]): 1.39 ± 0.36 ng·h/mL; AUC(0-inf) (in vivo; [3]): 1.86 ± 0.632 ng·h/mL; AUC(0-inf) (in vivo; [4]): 1.64 ± 0.474 ng·h/mL; Cmax (in vivo; [3]): 0.85 ± 0.761 ng/mL; Cmax (in vivo; [4]): 0.389 ± 0.167 ng/mL; MRT (in vivo; [3]): 10.2 ± 4.65 h; MRT (in vivo; [4]): 10.5 ± 3.13 h; Tmax (in vivo; [3]): 0.43 ± 0.36 h; Tmax (in vivo; [4]): 0.36 ± 0.31 h; half-life (in vivo; [5]): 8.28 ± 3.4 h; half-life (in vivo; [6]): 6.26 ± 0.976 h |
| O=C1C[C@@H](c2ccc(O)cc2)Oc2cc(O)ccc21 [liquiritigenin] | 2.53 ± 0.662 ng·h/mL | 2.81 ± 0.98 ng·h/mL | 9.83 ± 4.37 h | 2.11 ± 1.73 ng·h/mL | 2.22 ± 1.98 ng·h/mL | 0.347 ± 0.276 ng/mL | 8.48 ± 1.07 h | 3.9 ± 1.03 h |  |  |
| O=C1C[C@@H](c2ccc(O[C@@H]3O[C@H](CO)[C@@H](O)[C@H](O)[C@H]3O)cc2)Oc2cc(O)ccc21 [liquiritin] | 7.66 ± 2.60 ng·h/mL | 9.14 ± 4.02 ng·h/mL | 10.2 ± 5.77 h | 6.01 ± 1.52 ng·h/mL | 7.37 ± 2.08 ng·h/mL |  | 10.3 ± 2.3 h | 5.76 ± 0.36 h | 0.29 ± 0.17 h |  |
| O=c1cc(-c2ccc(O)c(O)c2)oc2cc(O[C@@H]3O[C@H](CO)[C@@H](O)[C@H](O)[C@H]3O)cc(O)c12 [luteoloside] | 0.493 ± 0.147 ng·h/mL | 0.869 ± 0.272 ng·h/mL | 29.4 ± 17.5 h | 0.406 ± 0.055 ng·h/mL | 1.06 ± 0.47 ng·h/mL |  | 50.5 ± 26.9 h | 36.5 ± 16.8 h | 0.5 ± 0.33 h |  |
| C=C[C@H]1[C@H](O[C@@H]2O[C@H](CO)[C@@H](O)[C@H](O)[C@H]2O)OC=C2C(=O)OCC[C@H]21 [sweroside] | 247 ± 58.0 ng·h/mL | 281 ± 53.4 ng·h/mL |  | 210 ± 75.7 ng·h/mL | 294 ± 94.2 ng·h/mL | 28.9 ± 14.3 ng/mL |  |  | 1.58 ± 1.31 h |  |
| Cc1coc2c1C(=O)C(=O)c1c-2ccc2c(C)cccc12 [tanshinone I] | 4.54 ± 1.58 ng·h/mL |  |  | 3.62 ± 0.763 ng·h/mL | 5.58 ± 2.56 ng·h/mL | 0.297 ± 0.115 ng/mL | 18.2 ± 2.76 h | 10.7 ± 1.2 h | 8 h |  |
